Values of other authors as cited in the PKSmart pharmacokinetics tables (Seal et al. 2025).

Tests used:
[1] = Lombardo, Berellini, Obach 2018, Drug Metab Dispos 46:1466, doi 10.1124/dmd.118.082966; conditions: human; for MRT / Vd / clearance / half-life: in vivo, iv; for fraction unbound: plasma
[2] = Lombardo et al. 2013, J Clin Pharmacol 53:178, doi 10.1177/0091270012440282; conditions: for Vd / clearance: in vivo, iv; for fraction unbound: plasma

Row | SMILES | MRT [1] | Vd [1] | clearance [1] | half-life [1] | fraction unbound [1] | Vd ([2]; rat) | clearance ([2]; rat) | Vd ([2]; dog) | fraction unbound ([2]; dog) | fraction unbound ([2]; rat) | clearance ([2]; dog) | Vd ([2]; monkey) | clearance ([2]; monkey) | fraction unbound ([2]; monkey)
1 | NC[C@H]1O[C@H](O[C@H]2[C@H](O)[C@@H](O[C@H]3O[C@H](CO)[C@@H](O)[C@H](N)[C@H]3O)[C@H](N)C[C@@H]2N)[C@H](N)C[C@@H]1O | 2.4 h | 0.23 L/kg | 1.6 mL/min/kg | 2 h | 1 | 0.68 L/kg | 15.7 mL/min/kg | – | – | – | – | – | – | –
2 | CC(C)NCC(O)COc1cccc2[nH]ccc12 (stereo unspecified) | 2.6 h | 1.2 L/kg | – | 2.2 h | – | 1.36 L/kg | – | 17 L/kg | – | – | – | – | – | –
3 | CC(C)(C)NCC(O)c1ccc(O)c(CO)c1 (stereo unspecified) | 4.1 h | 1.9 L/kg | – | – | – | 30 L/kg | – | 3.9 L/kg | 0.05 | 0.05 | – | – | – | –
4 | CN(Cc1cnc2nc(N)nc(N)c2n1)c1ccc(C(=O)NC(CCC(=O)O)C(=O)O)cc1 (stereo unspecified) | 3.4 h | 0.43 L/kg | 2.1 mL/min/kg | – | – | – | – | – | – | 0.68 | – | – | – | –
5 | CCN(CCO)CCCC(C)Nc1ccnc2cc(Cl)ccc12 (stereo unspecified) | 1300 h | 700 L/kg | 11 mL/min/kg | 850 h | 0.57 | 14.6 L/kg | 28.2 mL/min/kg | – | – | 0.62 | – | – | – | –
6 | CN1C(=O)NC(=O)C(C)(C2=CCCCC2)C1=O (stereo unspecified) | 5.4 h | 1.1 L/kg | 3.4 mL/min/kg | 4.9 h | 0.53 | 2.5 L/kg | 40.6 mL/min/kg | – | – | – | – | – | – | –
7 | CCCN1CCCCC1C(=O)Nc1c(C)cccc1C (stereo unspecified) | 2.3 h | 0.75 L/kg | 5.5 mL/min/kg | 2.2 h | 0.06 | – | – | 1.42 L/kg | – | – | 30 mL/min/kg | – | – | –
8 | CCN1CCC[C@H]1CNC(=O)c1c(OC)ccc(Br)c1OC | 6.4 h | 0.65 L/kg | 1.7 mL/min/kg | 5.5 h | – | 4.5 L/kg | 170 mL/min/kg | 1.6 L/kg | 0.12 | 0.74 | 4.9 mL/min/kg | – | – | –
9 | CCc1nn(CCCN2CCN(c3cccc(Cl)c3)CC2)c(=O)n1CCOc1ccccc1 | 1.1 h | 0.51 L/kg | 7.5 mL/min/kg | 1.2 h | – | – | – | 3.24 L/kg | – | – | 26 mL/min/kg | – | – | –
10 | COc1ccc(C(CN(C)C)C2(O)CCCCC2)cc1 (stereo unspecified) | 5.2 h | 4.4 L/kg | 14 mL/min/kg | 5 h | – | 6.6 L/kg | 64.5 mL/min/kg | 3.3 L/kg | 0.593 | – | 13.5 mL/min/kg | 3.5 L/kg | 41 mL/min/kg | 0.708
11 | COc1c(N2CCNC(C)C2)c(F)cc2c(=O)c(C(=O)O)cn(C3CC3)c12 (stereo unspecified) | 11 h | 1.7 L/kg | 2.8 mL/min/kg | 10 h | – | 2.5 L/kg | 19.3 mL/min/kg | 2.11 L/kg | 0.84 | 0.75 | 4.2 mL/min/kg | 1.85 L/kg | 10.2 mL/min/kg | 0.83
12 | Nc1nc(N)c2nc(-c3ccccc3)c(N)nc2n1 | 3.4 h | 13 L/kg | 63 mL/min/kg | 4.3 h | 0.42 | 2.2 L/kg | 10.1 mL/min/kg | – | – | – | – | – | – | –
13 | NC(=O)c1csc([C@@H]2O[C@H](CO)[C@@H](O)[C@H]2O)n1 | 7.6 h | 1.1 L/kg | – | 5.9 h | 0.47 | – | – | 0.99 L/kg | 0.85 | – | – | 2 L/kg | – | 1
14 | CC[C@@]1(O)C(=O)OCc2c1cc1n(c2=O)Cc2cc3c(CN(C)C)c(O)ccc3nc2-1 | – | – | – | – | 0.65 | – | – | – | – | 0.747 | – | – | – | 0.8
15 | CC(C)NCC(O)COc1cccc2ccccc12 (stereo unspecified) | 4.3 h | 3.1 L/kg | 12 mL/min/kg | 3.4 h | – | 4.58 L/kg | 94.3 mL/min/kg | 6.79 L/kg | 0.04 | 0.1 | 51.8 mL/min/kg | 2.28 L/kg | 20.8 mL/min/kg | 0.03
16 | Cc1cc(=O)n(-c2ccccc2)n1C | 20 h | 0.77 L/kg | 0.64 mL/min/kg | 12 h | – | 0.81 L/kg | 9.1 mL/min/kg | 0.09 L/kg | 0.6 | 1 | 6.3 mL/min/kg | 0.74 L/kg | 4.6 mL/min/kg | 0.908
17 | CN(C)CCc1c[nH]c2ccc(C[C@H]3COC(=O)N3)cc12 | 4.6 h | 1.8 L/kg | 6.7 mL/min/kg | 3.6 h | – | 3.53 L/kg | 29.4 mL/min/kg | – | – | – | – | – | – | –
18 | CC(C)c1cccc(C(C)C)c1O | 2.2 h | 4.7 L/kg | 36 mL/min/kg | 3.2 h | 0.016 | 1.37 L/kg | 107 mL/min/kg | 2.46 L/kg | 0.02 | 0.03 | 39.8 mL/min/kg | – | – | –
19 | O=P1(N(CCCl)CCCl)NCCCO1 (stereo unspecified) | 11 h | 0.73 L/kg | 1.1 mL/min/kg | 8 h | – | 0.67 L/kg | 11.1 mL/min/kg | 0.7 L/kg | – | – | 20 mL/min/kg | – | – | –
20 | CN(C)CCc1c[nH]c2ccc(CS(=O)(=O)N3CCCC3)cc12 | 4.2 h | 2.2 L/kg | 8.9 mL/min/kg | 3.4 h | 0.6 | 2.7 L/kg | 55.8 mL/min/kg | 3.98 L/kg | 0.73 | 0.72 | 28.5 mL/min/kg | 2.61 L/kg | 40 mL/min/kg | 0.699
21 | O=C(O)P(=O)(O)O | – | 0.5 L/kg | 2.1 mL/min/kg | 4.7 h | – | – | – | 0.65 L/kg | – | – | 3.62 mL/min/kg | – | – | –
22 | O=c1n(CCCN2CCN(c3cccc(Cl)c3)CC2)nc2ccccn12 | 6.2 h | 0.52 L/kg | 1.4 mL/min/kg | 7.3 h | 0.08 | 1.76 L/kg | 51.8 mL/min/kg | – | – | 0.12 | – | – | – | –
23 | CC#CCC(C)[C@H](O)/C=C/[C@@H]1[C@H]2C/C(=C/CCCC(=O)O)C[C@H]2C[C@H]1O (stereo partly specified) | – | 0.37 L/kg | 16 mL/min/kg | 0.57 h | 0.4 | 0.79 L/kg | 32.4 mL/min/kg | 0.93 L/kg | – | – | 67.2 mL/min/kg | – | – | –
24 | O=C(c1ccc(F)cc1)C1CCN(CCn2c(=O)[nH]c3ccccc3c2=O)CC1 | – | – | – | 12 h | – | – | 3.8 mL/min/kg | – | 0.0948 | 0.01 | 24.7 mL/min/kg | – | – | –
25 | COC(=O)CCc1ccc(OCC(O)CNC(C)C)cc1 (stereo unspecified) | 0.07 h | 1.2 L/kg | 290 mL/min/kg | 0.15 h | 0.59 | – | – | 3.4 L/kg | 0.62 | 0.71 | 1500 mL/min/kg | – | – | –
26 | CN(C)CCc1c[nH]c2ccc(Cn3cncn3)cc12 | 2 h | 1.9 L/kg | 16 mL/min/kg | 2.2 h | – | – | 79 mL/min/kg | 2.5 L/kg | – | – | 40 mL/min/kg | – | – | –
27 | CC[C@H](OC(C)=O)C(C[C@H](C)N(C)C)(c1ccccc1)c1ccccc1 | 26 h | 8.3 L/kg | 5.4 mL/min/kg | – | 0.2 | – | – | 5.9 L/kg | – | – | 28 mL/min/kg | – | – | –
28 | COc1ccc2c3c1O[C@H]1C[C@@H](O)C=C[C@@]31CCN(C)C2 | 6.8 h | 2.3 L/kg | 5.6 mL/min/kg | 5.3 h | – | 5.2 L/kg | 31.7 mL/min/kg | 2.78 L/kg | 0.981 | 0.75 | 12.3 mL/min/kg | – | – | –
